The values that follow come from patent US20150196022A1, “ABSORBENT PAD HAVING THREE OR MORE MODULES TO ENHANCE PRESERVATION OF FLOWERS” (Paper-Pak Industries, priority 2014, published 2015).

A short description of the series: Na2S2O5 in an open environment: SO2 concentration in air measured daily. It is filed as physicochemical. The method, then: FIG. 12A and FIG. 12B show the results of a test that was performed to establish how Na2S2O5 reacts with the environment, and the effect of changes in relative humidity.
0.1 g of Na2S2O5 on sampling “boats” were placed on top of a counter; i.e., in an “open” environment. The concentration of SO2 gas (in parts per million, ppm) in the air at about 2.5 cm (about 1″) above the Na2S2O5 was measured daily for more than 50 days of testing. The relative humidity was also measured for each day of testing.
This is in agreement with the known chemistry of Na2S2O5.

Regarding `O=S([O-])S(=O)(=O)[O-].[Na+].[Na+]` [Na2S2O5, sodium metabisulfite], the “average SO2 concentration generated” value (0.1 g Na2S2O5, open environment, about 2.5 cm above sample, up to 50 days) is recorded as 0.5 ppm. In addition, the “duration of continuous SO2 generation” value (summary of the several tests) is recorded as “more than 50 days”.
